Test results from patent US8802663B2, “Pyrazole oxadiazole derivatives as S1P1 agonists” (Merck Serono SA, priority 2009, dated 2014).

biological target: S1P1 (Homo sapiens (Human), UniProt P21453); assay: 35S-GTPγS binding, membranes from CHO cells expressing S1P1; format: biochemical; settings: CHO cell membranes
Description: Cells were suspended in 50 mM TRIS, pH 7.4, 2 mM EDTA, 250 mM Sucrose (buffer A) and 1× Complete protease inhibitor cocktail (Roche), and disrupted at 4° C. by N2 decompression using a cell disruption bomb (Parr Instrument). Following centrifugation at 1000 RPM for 10 min at 4° C., the supernatant was suspended in buffer A and centrifuged again at 19000 RPM for 60 min at 4° C. The pellet was then suspended in 10 mM HEPES, pH 7.4, 1 mM EDTA, 250 mM Sucrose (Buffer B), and 1× Complete EDTA-free protease inhibitor cocktail and homogenized using a potter. Membranes were flash frozen in liquid N2 and stored at −80° C. [33P]sphingosine 1-phosphate (3000 Ci/mmol; American Radiolabeled Chemicals, Inc.) was added to test compounds in DMSO. […] Specific binding was calculated by subtracting remaining radioactivity in the presence of 1000-fold excess of unlabeled SIP. Binding data were analyzed using the GraphPad Prism program.
After 60 min incubation at 30° C. on a shaker, plates were centrifuged for 10 min at 2000 RPM. […] Triplicate samples were averaged and expressed as % response relative to S1P activation in absence of compound (n=2).

Chain of S1P1 (P21453 whole entry, species assumed): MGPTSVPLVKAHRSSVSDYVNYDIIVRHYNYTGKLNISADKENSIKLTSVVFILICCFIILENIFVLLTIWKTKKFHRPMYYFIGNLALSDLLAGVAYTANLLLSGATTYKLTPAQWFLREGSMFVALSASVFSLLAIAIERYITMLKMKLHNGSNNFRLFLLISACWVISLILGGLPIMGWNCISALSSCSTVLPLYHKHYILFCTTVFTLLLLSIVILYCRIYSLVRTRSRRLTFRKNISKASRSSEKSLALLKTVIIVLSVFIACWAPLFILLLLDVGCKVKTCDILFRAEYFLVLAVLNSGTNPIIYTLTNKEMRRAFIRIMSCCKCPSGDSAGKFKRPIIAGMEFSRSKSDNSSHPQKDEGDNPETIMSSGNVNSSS

Q: For Fc1ccc(F)c(-c2noc(-c3cnn(-c4ccccc4F)c3-c3ccccc3)n2)c1 [Example 2, 3-(2,5-difluorophenyl)-5-[1-(2-fluorophenyl)-5-phenyl-1H-pyrazol-4-yl]-1,2,4-oxadiazole], which EC50 is on record?
A: The EC50 was 24 nM.

Q: With COc1ccccc1-n1ncc(-c2nc(-c3cc(F)ccc3F)no2)c1-c1ccccc1 [Example 4, 3-(2,5-difluorophenyl)-5-[1-(2-methoxyphenyl)-5-phenyl-1H-pyrazol-4-yl]-1,2,4-oxadiazole] as the compound, how does the EC50 read?
A: Its EC50 is 284 nM.

Q: With CC(C)Cn1cc(-c2nc(-c3cc(F)ccc3F)no2)c(-c2ccccc2)n1 [Example 7, 3-(2,5-difluorophenyl)-5-(1-isobutyl-3-phenyl-1H-pyrazol-4-yl)-1,2,4-oxadiazole] as the compound, how does the EC50 read?
A: The EC50 was 288 nM.

Q: CC(C)n1ncc(-c2nc(-c3cc(F)ccc3F)no2)c1-c1ccccc1 [Example 10, 3-(2,5-difluorophenyl)-5-(1-isopropyl-5-phenyl-1H-pyrazol-4-yl)-1,2,4-oxadiazole] was tested. Which EC50 did it give?
A: Its EC50 is 172 nM.

Q: For CCCn1ncc(-c2nc(-c3cc(F)ccc3F)no2)c1-c1ccccc1 [Example 14, 3-(2,5-difluorophenyl)-5-(5-phenyl-1-propyl-1H-pyrazol-4-yl)-1,2,4-oxadiazole], which EC50 is on record?
A: The EC50 was 201 nM.

Q: Cc1c(-c2nc(-c3cc(F)ccc3F)no2)cnn1-c1ccccc1 [Example 15, 3-(2,5-difluorophenyl)-5-(5-methyl-1-phenyl-1H-pyrazol-4-yl)-1,2,4-oxadiazole] was tested. Which EC50 did it give?
A: The EC50 was 192 nM.

Q: Cn1cc(-c2nc(-c3cc(F)ccc3F)no2)c(C(C)(C)C)n1 [Example 16, 5-(3-tert-butyl-1-methyl-1H-pyrazol-4-yl)-3-(2,5-difluorophenyl)-1,2,4-oxadiazole] was tested. Which EC50 did it give?
A: Its EC50 is 901 nM.

Q: Which EC50 does the source give for COCc1c(-c2nc(-c3cc(F)ccc3F)no2)cnn1CC(C)C [Example 17, 3-(2,5-difluorophenyl)-5-(1-isobutyl-5-(methoxymethyl)-1H-pyrazol-4-yl)-1,2,4-oxadiazole] here?
A: The EC50 was 648 nM.

Q: With CCc1c(-c2nc(-c3cc(F)ccc3F)no2)cnn1CC(C)C [Example 18, 3-(2,5-difluorophenyl)-5-(5-ethyl-1-isobutyl-1H-pyrazol-4-yl)-1,2,4-oxadiazole] as the compound, how does the EC50 read?
A: The EC50 was 776 nM.

Q: How did the EC50 turn out when CCOC(=O)Cn1ncc(-c2nc(-c3cc(F)ccc3F)no2)c1-c1ccncc1 [Example 20, ethyl {4-[3-(2,5-difluorophenyl)-1,2,4-oxadiazol-5-yl]-5-pyridin-4-yl-1H-pyrazol-1-yl}acetate] was run?
A: The EC50 was 172 nM.

Q: How did the EC50 turn out when CCCc1c(-c2nc(-c3cc(F)ccc3F)no2)cnn1-c1ccccc1 [Example 21, 3-(2,5-difluorophenyl)-5-(1-phenyl-5-propyl-1H-pyrazol-4-yl)-1,2,4-oxadiazole] was run?
A: The EC50 was 81 nM.

Q: Which EC50 does the source give for CCCc1c(-c2nc(-c3cccc(S(C)(=O)=O)c3)no2)cnn1-c1ccccc1 [Example 22] here?
A: Its EC50 is 370 nM.

Q: How did the EC50 turn out when Fc1ccc(F)c(-c2noc(-c3cnn(CC(F)(F)F)c3-c3ccncc3)n2)c1 [Example 24, 3-(2,5-difluorophenyl)-5-(5-(pyridin-4-yl)-1-(2,2,2-trifluoroethyl)-1H-pyrazol-4-yl)-1,2,4-oxadiazole] was run?
A: The EC50 was 292 nM.

Q: With Fc1ccc(F)c(-c2noc(-c3cnn(Cc4ccccc4)c3-c3ccncc3)n2)c1 [Example 25, 4-{1-benzyl-4-[3-(2,5-difluorophenyl)-1,2,4-oxadiazol-5-yl]-1H-pyrazol-5-yl}pyridine] as the compound, how does the EC50 read?
A: Its EC50 is 148 nM.

Q: With CS(=O)(=O)c1cccc(-c2noc(-c3cnn(C4CCCCC4)c3-c3ccncc3)n2)c1 [Example 26, 4-(1-cyclohexyl-4-{3-[3-(methylsulfonyl)phenyl]-1,2,4-oxadiazol-5-yl}-1H-pyrazol-5-yl)pyridine] as the compound, how does the EC50 read?
A: The EC50 was 29 nM.

Q: Which EC50 does the source give for COCc1c(-c2nc(-c3cc(F)ccc3F)no2)cnn1C1CCCCC1 [Example 27, 5-[1-cyclohexyl-5-(methoxymethyl)-1H-pyrazol-4-yl]-3-(2,5-difluorophenyl)-1,2,4-oxadiazole] here?
A: Its EC50 is 27 nM.

Q: For OCc1ccc(-c2noc(-c3cnn(C4CCCCC4)c3-c3ccncc3)n2)cc1 [Example 29, {4-[5(1-cyclohexyl-5-pyridin-4-yl-1H-pyrazol-4-yl)-1,2,4-oxadiazol-3-yl]phenyl}methanol], which EC50 is on record?
A: The EC50 was 24 nM.

Q: For Fc1ccc(F)c(-c2noc(-c3cnn(C4CCCC4)c3-c3ccncc3)n2)c1 [Example 30, 4-{1-cyclopentyl-4-[3-(2,5-difluorophenyl)-1,2,4-oxadiazol-5-yl]-1H-pyrazol-5-yl}Pyridine], which EC50 is on record?
A: Its EC50 is 20 nM.

Q: Which EC50 does the source give for CC(C)Cn1ncc(-c2nc(-c3cc(F)ccc3F)no2)c1C1CCOCC1 [Example 32, 3-(2,5-difluorophenyl)-5-[1-isobutyl-5-(tetrahydro-2H-pyran-4-yl)-1H-pyrazol-4-yl]-1,2,4-oxadiazole] here?
A: The EC50 was 180 nM.

Q: Which EC50 does the source give for Fc1ccc(F)c(-c2noc(-c3cnn(C4CCOCC4)c3-c3ccccc3)n2)c1 [Example 33, 3-(2,5-difluorophenyl)-5-[5-phenyl-1-(tetrahydro-2H-pyran-4-yl)-1H-pyrazol-4-yl]-1,2,4-oxadiazole] here?
A: Its EC50 is 216 nM.

Q: For Fc1ccc(F)c(-c2noc(-c3cnn(CCNC4CC4)c3-c3ccccc3)n2)c1 [Example 35, N-(2-{4-[3-(2,5-difluorophenyl)-1,2,4-oxadiazol-5-yl]-5-phenyl-1H-pyrazol-1-yl}ethyl)cyclopropanamine], which EC50 is on record?
A: Its EC50 is 931 nM.

Q: CC(C)Cn1ncc(-c2nc(-c3ccc4c(c3)CNCC4)no2)c1-c1ccncc1 [Example 36, 7-[5-(1-isobutyl-5-pyridin-4-yl-1H-pyrazol-4-yl)-1,2,4-oxadiazol-3-yl]-1,2,3,4-tetrahydroisoquinoline] was tested. Which EC50 did it give?
A: Its EC50 is 114 nM.

Q: For c1cc(-c2c(-c3nc(-c4ccc5c(c4)CNCC5)no3)cnn2C2CCCCC2)ccn1 [Example 39, 7-[5-(1-cyclohexyl-5-pyridin-4-yl-1H-pyrazol-4-yl)-1,2,4-oxadiazol-3-yl]-1,2,3,4-tetrahydroisoquinoline], which EC50 is on record?
A: The EC50 was 16 nM.

Q: CC(C)Cn1ncc(-c2nc(-c3cccc(S(C)(=O)=O)c3)no2)c1-c1ccncc1 [Example 43, 4-(1-isobutyl-4-{3-[3-(methylsulfonyl)phenyl]-1,2,4-oxadiazol-5-yl}-1H-pyrazol-5-yl)pyridine] was tested. Which EC50 did it give?
A: Its EC50 is 292 nM.

Q: Fc1ccc(F)c(-c2noc(-c3cnn(C4CCC4)c3-c3ccncc3)n2)c1 [Example 44, 4-{1-cyclobutyl-4-[3-(2,5-difluorophenyl)-1,2,4-oxadiazol-5-yl]-1H-pyrazol-5-yl}pyridine] was tested. Which EC50 did it give?
A: Its EC50 is 402 nM.

Q: OC1CCN(Cc2ccc(-c3noc(-c4cnn(C5CCCCC5)c4-c4ccncc4)n3)cc2)C1 (stereo not shown) [Example 45, 1-{4-[5-(1-cyclohexyl-5-pyridin-4-yl-1H-pyrazol-4-yl)-1,2,4-oxadiazol-3-yl]benzyl}pyrrolidin-3-ol] was tested. Which EC50 did it give?
A: The EC50 was 10 nM.

Q: With C[C@H]1CCCC[C@@H]1n1ncc(-c2nc(-c3cc(F)ccc3F)no2)c1-c1ccccc1 [Example 46, 3-(2,5-difluorophenyl)-5-{1-[(1S,2S)-2-methylcyclohexyl]-5-phenyl-1H-pyrazol-4-yl}-1,2,4-oxadiazole] as the compound, how does the EC50 read?
A: The EC50 was 26 nM.

Q: For Cc1ccccc1-c1c(-c2nc(-c3cc(F)ccc3F)no2)cnn1C1CCCCC1 [Example 48, 5-[1-cyclohexyl-5-(2-methylphenyl)-1H-pyrazol-4-yl]-3-(2,5-difluorophenyl)-1,2,4-oxadiazole], which EC50 is on record?
A: Its EC50 is 47 nM.

Q: For COCc1c(-c2nc(-c3ccc(CO)cc3)no2)cnn1C1CCCCC1 [Example 49, (4-{5-[1-cyclohexyl-5-(methoxymethyl)-1H-pyrazol-4-yl]-1,2,4-oxadiazol-3-yl}phenyl)methanol], which EC50 is on record?
A: Its EC50 is 229 nM.

Q: Which EC50 does the source give for CC(C)Cn1ncc(-c2nc(-c3cccc(C(F)(F)F)c3)no2)c1C1CCOCC1 [Example 50, 5-[1-isobutyl-5-(tetrahydro-2H-pyran-4-yl)-1H-pyrazol-4-yl]-3-[3-(trifluoromethyl)phenyl]-1,2,4-oxadiazole] here?
A: Its EC50 is 211 nM.

Q: c1ccc(-c2nc(-c3cnn(C4CCCCC4)c3-c3ccccc3)no2)cc1 [Example 51, 3-(1-cyclohexyl-5-phenyl-1H-pyrazol-4-yl)-5-phenyl-1,2,4-oxadiazole] was tested. Which EC50 did it give?
A: The EC50 was 310 nM.

Q: For Fc1ccccc1-c1nc(-c2cnn(C3CCCCC3)c2-c2ccccc2)no1 [Example 52, 3-(1-cyclohexyl-5-phenyl-1H-pyrazol-4-yl)-5-(2-fluorophenyl)-1,2,4-oxadiazole], which EC50 is on record?
A: Its EC50 is 313 nM.

Q: c1ccc(-c2c(-c3noc(-c4cccnc4)n3)cnn2C2CCCCC2)cc1 [Example 53, 3-[3-(1-cyclohexyl-5-phenyl-1H-pyrazol-4-yl)-1,2,4-oxadiazol-5-yl]pyridine] was tested. Which EC50 did it give?
A: Its EC50 is 164 nM.

Q: How did the EC50 turn out when CC(C)Cn1ncc(-c2nc(-c3ccc(CO)cc3)no2)c1-c1ccncc1 [Example 54, {4-[5-(1-isobutyl-5-pyridin-4-yl-1H-pyrazol-4-yl)-1,2,4-oxadiazol-3-yl]phenyl}methanol] was run?
A: Its EC50 is 189 nM.

Q: Which EC50 does the source give for CNCc1ccc(-c2noc(-c3cnn(C4CCCCC4)c3-c3ccncc3)n2)cc1 [Example 55, 1-{4-[5-(1-cyclohexyl-5-pyridin-4-yl-1H-pyrazol-4-yl)-1,2,4-oxadiazol-3-yl]phenyl}-N-methylmethanamine] here?
A: Its EC50 is 24 nM.

Q: Which EC50 does the source give for OCCNCc1ccc(-c2noc(-c3cnn(C4CCCCC4)c3-c3ccncc3)n2)cc1 [Example 56, 2-({4-[5-(1-cyclohexyl-5-pyridin-4-yl-1H-pyrazol-4-yl)-1,2,4-oxadiazol-3-yl]benzyl}amino)ethanol] here?
A: The EC50 was 11 nM.

Q: With Fc1ccc(F)c(-c2nc(-c3cnn(C4CCCCC4)c3-c3ccccc3)no2)c1 [Example 57, 3-(1-cyclohexyl-5-phenyl-1H-pyrazol-4-yl)-5-(2,5-difluorophenyl)-1,2,4-oxadiazole] as the compound, how does the EC50 read?
A: Its EC50 is 49 nM.
